In ChEMBL document CHEMBL5233274, “Current Landscape and Future Perspective of Oxazolidinone Scaffolds Containing Antibacterial Drugs” (J Med Chem, 2021):
In brackets after ≈: the same amount, converted by molar mass. Each block holds one molecule with its values, some of them ahead of it.

Assays:
Format in all cases: functional
Staphylococcus aureus [1] = experiment: Antibacterial activity against methicillin-resistant Staphylococcus aureus assessed as inhibition of bacterial growth by CLSI protocol based method
Enterococcus = experiment: Antibacterial activity against vancomycin-resistant Enterococcus assessed as inhibition of bacterial growth by CLSI protocol based method
Staphylococcus aureus [2] = experiment: Antibacterial activity against Staphylococcus aureus ATCC 29213 assessed as inhibition of bacterial growth by CLSI protocol based method
[3] = tested on: Staphylococcus epidermidis; experiment: Antibacterial activity against Staphylococcus epidermidis ATCC 12228 assessed as inhibition of bacterial growth incubated for 18 to 24 hrs by CLSI protocol based Tryptic soy broth method; details: time 18-24 hrs
Staphylococcus aureus [4] = experiment: Antibacterial activity against methicillin-resistant Staphylococcus aureus assessed as inhibition of bacterial growth incubated for 18 to 24 hrs by CLSI protocol based Tryptic soy broth method; details: time 18-24 hrs
Staphylococcus aureus [5] = experiment: Antibacterial activity against Staphylococcus aureus ATCC 25923 assessed as inhibition of bacterial growth incubated for 18 to 24 hrs by CLSI protocol based Tryptic soy broth method; details: time 18-24 hrs
Enterococcus faecalis [6] = experiment: Antibacterial activity against Enterococcus faecalis ATCC 29212 assessed as inhibition of bacterial growth incubated for 18 to 24 hrs by CLSI protocol based Tryptic soy broth method; details: time 18-24 hrs
Candida albicans = experiment: Antifungal activity against Candida albicans assessed as inhibition of fungal growth incubated measured per 100 uL incubated for 24 hrs by agar well diffusion method
Escherichia coli [7] = experiment: Antibacterial activity against Escherichia coli assessed as inhibition of bacterial growth measured per 100 uL incubated for 24 hrs by agar well diffusion method
Bacillus subtilis [8] = experiment: Antibacterial activity against Bacillus subtilis assessed as inhibition of bacterial growth measured per 100 uL incubated for 24 hrs by agar well diffusion method
Saccharomyces cerevisiae = experiment: Antifungal activity against Saccharomyces cerevisiae assessed as inhibition of fungal growth incubated measured per 100 uL incubated for 24 hrs by agar well diffusion method
Pseudomonas aeruginosa [9] = experiment: Antibacterial activity against Pseudomonas aeruginosa assessed as inhibition of bacterial growth measured per 100 uL incubated for 24 hrs by agar well diffusion method
Staphylococcus aureus [10] = experiment: Antibacterial activity against Staphylococcus aureus assessed as inhibition of bacterial growth measured per 100 uL incubated for 24 hrs by agar well diffusion method
Bacillus subtilis [11] = experiment: Antibacterial activity against Bacillus subtilis NCIM 2097 assessed as inhibition of bacterial growth incubated for 24 hrs by serial broth dilution method
Staphylococcus aureus [12] = experiment: Antibacterial activity against Staphylococcus aureus NCIM 5257 assessed as inhibition of bacterial growth incubated for 24 hrs by serial broth dilution method
Pseudomonas aeruginosa [13] = experiment: Antibacterial activity against Pseudomonas aeruginosa NCIM 5210 assessed as inhibition of bacterial growth incubated for 24 hrs by serial dilution method
Klebsiella pneumoniae = experiment: Antibacterial activity against Klebsiella pneumoniae NCIM 5289 assessed as inhibition of bacterial growth incubated for 24 hrs by serial dilution method
Enterococcus faecalis [14] = experiment: Antibacterial activity against Streptococcus faecalis NCIM 2080 assessed as inhibition of bacterial growth incubated for 24 hrs by serial dilution method
Escherichia coli [15] = experiment: Antibacterial activity against Escherichia coli NCIM 2065 assessed as inhibition of bacterial growth incubated for 24 hrs by serial dilution method

SMILES: CC(=O)NC[C@H]1CN(c2ccc(N3CCN(/N=C/c4ncc(N)n4C)CC3)c(F)c2)C(=O)O1
MIC (Staphylococcus aureus [1]): > 8 µg/mL | MIC (Enterococcus): > 8 µg/mL | MIC (Staphylococcus aureus [2]): > 8 µg/mL

SMILES: Cc1nc(C)c(COc2ccc(N3C[C@H](CO)OC3=O)cc2F)nc1C
MIC [3]: 128 µg/mL (≈ 354 µM) | MIC (Staphylococcus aureus [4]): 64 µg/mL (≈ 177 µM) | MIC (Staphylococcus aureus [5]): 64 µg/mL (≈ 177 µM) | MIC (Enterococcus faecalis [6]): 64 µg/mL (≈ 177 µM)

MIC (Candida albicans): 12.5 µg | MIC (Escherichia coli [7]): 12.5 µg | MIC (Bacillus subtilis [8]): 25 µg | MIC (Saccharomyces cerevisiae): 12.5 µg | MIC (Pseudomonas aeruginosa [9]): 12.5 µg | MIC (Staphylococcus aureus [10]): 6.25 µg
SMILES: O=C1NC(Cc2ccc(Nc3nc(-c4ccc5ccccc5c4)cs3)cc2)CO1 (stereo unspecified)

SMILES: Cc1nc(C)c(COc2ccc(N3C[C@H](Cn4ccnn4)OC3=O)cc2F)nc1C
MIC [3]: 8 µg/mL (≈ 19.4 µM) | MIC (Staphylococcus aureus [4]): 4 µg/mL (≈ 9.7 µM) | MIC (Staphylococcus aureus [5]): 8 µg/mL (≈ 19.4 µM) | MIC (Enterococcus faecalis [6]): 32 µg/mL (≈ 77.6 µM)

MIC (Candida albicans): 12.5 µg | MIC (Escherichia coli [7]): 12.5 µg | MIC (Bacillus subtilis [8]): 6.25 µg | MIC (Saccharomyces cerevisiae): 12.5 µg | MIC (Pseudomonas aeruginosa [9]): 12.5 µg | MIC (Staphylococcus aureus [10]): 6.25 µg
SMILES: O=C1NC(Cc2ccc(Nc3nc(-c4ccc(Cl)cc4)cs3)cc2)CO1 (stereo unspecified)

MIC (Bacillus subtilis [11]): 3.12 µg/mL (≈ 7.52 µM) | MIC (Staphylococcus aureus [12]): 3.12 µg/mL (≈ 7.52 µM) | MIC (Pseudomonas aeruginosa [13]): 3.12 µg/mL (≈ 7.52 µM) | MIC (Klebsiella pneumoniae): 3.12 µg/mL (≈ 7.52 µM) | MIC (Enterococcus faecalis [14]): 3.12 µg/mL (≈ 7.52 µM) | MIC (Escherichia coli [15]): 3.12 µg/mL (≈ 7.52 µM)
SMILES: O=C(/C=C/c1ccccc1O)c1ccc(-c2ccc(N3C[C@H](CO)OC3=O)cc2)cc1

SMILES: CC(=O)NC[C@H]1CN(c2ccc(N3CCN(/N=C/c4ccc([N+](=O)[O-])o4)CC3)c(F)c2)C(=O)O1
MIC (Staphylococcus aureus [1]): 1 µg/mL (≈ 2.11 µM) | MIC (Enterococcus): 1 µg/mL (≈ 2.11 µM) | MIC (Staphylococcus aureus [2]): 0.25 µg/mL (≈ 0.527 µM)

MIC (Bacillus subtilis [11]): 3.12 µg/mL (≈ 7.02 µM) | MIC (Staphylococcus aureus [12]): 3.12 µg/mL (≈ 7.02 µM) | MIC (Pseudomonas aeruginosa [13]): 3.12 µg/mL (≈ 7.02 µM) | MIC (Klebsiella pneumoniae): 3.12 µg/mL (≈ 7.02 µM) | MIC (Enterococcus faecalis [14]): 3.12 µg/mL (≈ 7.02 µM) | MIC (Escherichia coli [15]): 3.12 µg/mL (≈ 7.02 µM)
SMILES: COc1cc(/C=C/C(=O)c2ccc(-c3ccc(N4C[C@H](CO)OC4=O)cc3)cc2)ccc1O

SMILES: CC(=O)NC[C@H]1CN(c2ccc(OCc3nc(C)c(C)nc3C)cc2)C(=O)O1
MIC [3]: 16 µg/mL (≈ 41.6 µM) | MIC (Staphylococcus aureus [4]): 8 µg/mL (≈ 20.8 µM) | MIC (Staphylococcus aureus [5]): 16 µg/mL (≈ 41.6 µM) | MIC (Enterococcus faecalis [6]): 32 µg/mL (≈ 83.2 µM)

MIC (Candida albicans): 12.5 µg | MIC (Escherichia coli [7]): 12.5 µg | MIC (Bacillus subtilis [8]): 12.5 µg | MIC (Saccharomyces cerevisiae): 12.5 µg | MIC (Pseudomonas aeruginosa [9]): 12.5 µg | MIC (Staphylococcus aureus [10]): 12.5 µg
SMILES: O=C1NC(Cc2ccc(Nc3nc(-c4ccc(F)cc4)cs3)cc2)CO1 (stereo unspecified)

MIC (Bacillus subtilis [8]): 6.25 µg | MIC (Staphylococcus aureus [10]): 6.25 µg
SMILES: O=C(O)c1cn(C2CC2)c2cc(N3CCNCC3)c(F)cc2c1=O [CIPROFLOXACIN]

SMILES: CC(=O)NC[C@H]1CN(c2ccc(N3CCN(/N=C/c4ccccc4[N+](=O)[O-])CC3)c(F)c2)C(=O)O1
MIC (Staphylococcus aureus [1]): 1 µg/mL (≈ 2.06 µM) | MIC (Enterococcus): 2 µg/mL (≈ 4.13 µM) | MIC (Staphylococcus aureus [2]): 2 µg/mL (≈ 4.13 µM)

SMILES: Cc1nc(C)c(COc2ccc(N3C[C@H](CNC(=O)CCl)OC3=O)cc2)nc1C
MIC [3]: 8 µg/mL (≈ 19.1 µM) | MIC (Staphylococcus aureus [4]): 8 µg/mL (≈ 19.1 µM) | MIC (Staphylococcus aureus [5]): 8 µg/mL (≈ 19.1 µM) | MIC (Enterococcus faecalis [6]): 16 µg/mL (≈ 38.2 µM)

SMILES: CC(=O)NC[C@H]1CN(c2ccc(N3CCN(Cc4ccc([N+](=O)[O-])o4)CC3)c(F)c2)C(=O)O1 [RANBEZOLID]
MIC (Staphylococcus aureus [1]): 2 µg/mL (≈ 4.33 µM) | MIC (Enterococcus): 2 µg/mL (≈ 4.33 µM) | MIC (Staphylococcus aureus [2]): 1 µg/mL (≈ 2.17 µM)

SMILES: CC(=O)NC[C@H]1CN(c2ccc(N3CCN(/N=C/c4ccc([N+](=O)[O-])s4)CC3)c(F)c2)C(=O)O1
MIC (Staphylococcus aureus [1]): 1 µg/mL (≈ 2.04 µM) | MIC (Enterococcus): 2 µg/mL (≈ 4.08 µM) | MIC (Staphylococcus aureus [2]): 0.25 µg/mL (≈ 0.51 µM)

MIC (Bacillus subtilis [11]): 3.12 µg/mL (≈ 7.52 µM) | MIC (Staphylococcus aureus [12]): 3.12 µg/mL (≈ 7.52 µM) | MIC (Pseudomonas aeruginosa [13]): 3.12 µg/mL (≈ 7.52 µM) | MIC (Klebsiella pneumoniae): 3.12 µg/mL (≈ 7.52 µM) | MIC (Enterococcus faecalis [14]): 3.12 µg/mL (≈ 7.52 µM) | MIC (Escherichia coli [15]): 3.12 µg/mL (≈ 7.52 µM)
SMILES: O=C(/C=C/c1ccc(O)cc1)c1ccc(-c2ccc(N3C[C@H](CO)OC3=O)cc2)cc1

SMILES: CC(=O)NC[C@H]1CN(c2ccc(N3CCN(/N=C/c4cccc([N+](=O)[O-])c4)CC3)c(F)c2)C(=O)O1
MIC (Staphylococcus aureus [1]): 1 µg/mL (≈ 2.06 µM) | MIC (Enterococcus): 2 µg/mL (≈ 4.13 µM) | MIC (Staphylococcus aureus [2]): 2 µg/mL (≈ 4.13 µM)

SMILES: Cc1nc(C)c(COc2ccc(N3C[C@H](Cn4ccnn4)OC3=O)cc2)nc1C
MIC [3]: 64 µg/mL (≈ 162 µM) | MIC (Staphylococcus aureus [4]): 32 µg/mL (≈ 81.1 µM) | MIC (Staphylococcus aureus [5]): 64 µg/mL (≈ 162 µM) | MIC (Enterococcus faecalis [6]): 128 µg/mL (≈ 325 µM)
